# Assay results as given in patent US9943576B2 (priority 2014, dated 2018).
# Columns and labels:
# Format in all cases: cell-based
# [1] = system: human uroepithelial cells
# [2] = system: human uroepithelial cells; remark: listed apart in the source
# [3] = system: human uroepithelial cells; remark: listed apart in the source
Compound,Typical Results [1],"penetration of fluorescent gelatin, RFU relative to untreated control [2] [%]",increase vs saline in the amount of BoNT/A that permeated the in vitro urothelium [3] [fold]
CCCCCCCC/C=C\CCCCCCCC(=O)OCCOCC(OCCO)C1OCC(OCCO)C1OCCO (stereo not shown) [Tween 80],Increase (Dose response),–,–
O=C(O)CN(CCN(CC(=O)O)CC(=O)O)CC(=O)O [EDTA],Increase,300,–
Benzalkonium bromide,No Effect,–,–
Protamine sulfate,Inhibited,–,–
Poly-L-lysine Hydrobromide,Increase (Dose response),–,–
Nonoxynol 9,Increase (Dose response),–,3
octyl phenol ethoxylate [Triton-X100],Increase (Dose response),–,3.6
OCc1ccccc1 [Benzyl Alcohol],Slight Increase (1% at 2,–,–
CCOCCOCCO [Diethylene glycol mono-ethyl ether],No Effect,–,–
Poly-L-Arginine,Inhibited,–,–
